Patent US20100222269A1, “IMPROVED DERIVATIVES OF AMYLIN” (priority 2007, published 2010)
Starred links: 1 amine or outer side, 2 acyl side, 3 side chain; linkers in the order of their positions; H or OH if unused. Positions of bridges follow the written chain, without caps; N, C: chain ends. Residues, ends and D or L forms follow the SMILES beside them. Groups on a side chain read outwards from the residue. *: point of attachment. X1 = O=C(CCCCCCCCCCCCCCCc1nnn[nH]1)NS(=O)(=O)CCCC(=O)*; C20 diacid = O=C(O)CCCCCCCCCCCCCCCCCCC(=O)*; C18 diacid = O=C(O)CCCCCCCCCCCCCCCCC(=O)*; γGlu = O=C(O)[C@H](CCC(=O)[*:2])N[*:1]; AEEA = NCCOCCOCC(=O)O

Target: T1, Amylin 3(a) receptor (human calcitonin receptor (CTa) with RAMP-3) (Homo sapiens, UniProt O60896+P30988)
T1 construct: expressed in transfected cells; host or cells: BHK570 (baby hamster kidney) cells, stably transfected, with CRE-luciferase reporter
T1 sequence (O60896 24-148): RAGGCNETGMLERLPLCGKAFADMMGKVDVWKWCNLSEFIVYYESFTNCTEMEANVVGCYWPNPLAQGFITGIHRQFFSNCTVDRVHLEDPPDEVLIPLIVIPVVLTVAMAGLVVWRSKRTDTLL
T1 sequence (P30988 25-474): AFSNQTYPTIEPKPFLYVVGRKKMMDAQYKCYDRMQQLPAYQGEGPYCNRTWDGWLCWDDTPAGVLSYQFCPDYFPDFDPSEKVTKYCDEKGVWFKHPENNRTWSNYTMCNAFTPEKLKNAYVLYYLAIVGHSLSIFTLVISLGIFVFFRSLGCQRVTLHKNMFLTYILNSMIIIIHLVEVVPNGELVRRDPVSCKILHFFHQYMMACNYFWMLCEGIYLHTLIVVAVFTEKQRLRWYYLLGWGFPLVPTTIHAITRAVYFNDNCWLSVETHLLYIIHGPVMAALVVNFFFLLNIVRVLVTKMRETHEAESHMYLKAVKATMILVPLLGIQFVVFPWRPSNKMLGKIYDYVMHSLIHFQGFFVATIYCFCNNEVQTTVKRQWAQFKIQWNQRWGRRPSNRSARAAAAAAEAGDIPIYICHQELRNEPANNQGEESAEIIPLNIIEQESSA
Test: Amylin luciferase assay (CRE-luciferase reporter in BHK Amylin 3(a)//CRE-luc cells)
Assay type: cell-based
Settings: BHK570 cells with human calcitonin receptor (CTa), RAMP-3 and CRE-luciferase reporter; 4 hours incubation; read-out: Potency luciferase assay
In short: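 BHK570 cells stably expressing human calcitonin receptor (CTa), RAMP-3 and a CRE-luciferase reporter, about 20.000 cells/well, were exposed to standard or sample for 4 h at 37° C in phenol-red-free DMEM with 10% FBS and 10 mM Hepes pH 7,4. Luminescence was read after 30 min with LucLite at room temperature.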

SMILES	EC50
CC[C@H](C)[C@H](NC(=O)[C@@H]1CCCN1C(=O)CNC(=O)[C@H](Cc1ccccc1)NC(=O)[C@H](CC(N)=O)NC(=O)[C@H](CC(N)=O)NC(=O)[C@H](CO)NC(=O)[C@H](CO)NC(=O)[C@H](CCCNC(=N)N)NC(=O)[C@H](C)NC(=O)[C@H](CC(C)C)NC(=O)[C@H](Cc1ccccc1)NC(=O)[C@H](CC(N)=O)NC(=O)[C@H](C)NC(=O)[C@H](CC(C)C)NC(=O)[C@H](CCCNC(=N)N)NC(=O)[C@H](CCC(N)=O)NC(=O)[C@@H](NC(=O)[C@H](C)NC(=O)[C@@H]1CSSC[C@H](NC(=O)[C@@H](N)CCCCNC(=O)CC[C@H](NC(=O)CCCCCCCCCCCCCCCCC(=O)O)C(=O)O)C(=O)NCC(=O)N[C@@H]([C@@H](C)O)C(=O)N[C@@H](C)C(=O)N[C@@H]([C@@H](C)O)C(=O)N1)[C@@H](C)O)C(=O)N[C@@H](CC(C)C)C(=O)N[C@@H](CO)C(=O)N1CCC[C@H]1C(=O)N[C@H](C(=O)N[C@@H](CC(N)=O)C(=O)N[C@H](C(=O)NCC(=O)N[C@@H](CO)C(=O)N[C@@H](CC(N)=O)C(=O)N[C@H](C(=O)N[C@@H](Cc1ccc(O)cc1)C(N)=O)[C@@H](C)O)C(C)C)[C@@H](C)O [Example 23, N-epsilon1-[(S)-4-carboxy-4-(17-carboxyheptadecanoylamino)butyryl]-[Gly3,Ala17,Arg18,Ser28]-pramlintide (1-37)] (H-K([γGlu-C18 diacid])CGTATCATQRLANFLARSSNNFGPILSPTNVGSNTY-NH2; disulfide 2-7)	0.07 nM
CC[C@H](C)[C@H](NC(=O)[C@@H]1CCCN1C(=O)CNC(=O)[C@H](Cc1ccccc1)NC(=O)[C@H](CC(N)=O)NC(=O)[C@H](CC(N)=O)NC(=O)[C@H](CO)NC(=O)[C@H](CO)NC(=O)[C@H](Cc1c[nH]cn1)NC(=O)[C@@H](NC(=O)[C@H](CC(C)C)NC(=O)[C@H](Cc1ccccc1)NC(=O)[C@H](CC(N)=O)NC(=O)[C@H](C)NC(=O)[C@H](CC(C)C)NC(=O)[C@H](CCCNC(=N)N)NC(=O)[C@H](CCC(N)=O)NC(=O)[C@@H](NC(=O)[C@H](C)NC(=O)[C@@H]1CSSC[C@H](NC(=O)[C@H](CCC(=O)O)NC(=O)[C@H](CCCNC(=N)N)NC(=O)[C@H](CCC(=O)O)NC(=O)[C@H](CCC(=O)O)NC(=O)CCCCCCCCCCCCCCCCCCC(=O)O)C(=O)N[C@@H](CC(N)=O)C(=O)N[C@@H]([C@@H](C)O)C(=O)N[C@@H](C)C(=O)N[C@@H]([C@@H](C)O)C(=O)N1)[C@@H](C)O)C(C)C)C(=O)N[C@@H](CC(C)C)C(=O)N1CCC[C@H]1C(=O)N1CCC[C@H]1C(=O)N[C@H](C(=O)N[C@@H](CC(N)=O)C(=O)N[C@H](C(=O)NCC(=O)N[C@@H](CO)C(=O)N[C@@H](CC(N)=O)C(=O)N[C@H](C(=O)N[C@@H](Cc1ccc(O)cc1)C(N)=O)[C@@H](C)O)C(C)C)[C@@H](C)O [Example 25, N-alpha-(19-carboxynonadecanoyl)-Glu-Glu-Arg-[Glu1]-pramlintide (1-37)] ({C20 diacid}-EERECNTATCATQRLANFLVHSSNNFGPILPPTNVGSNTY-NH2; disulfide 5-10; C-terminus assumed)	0.08 nM
CC[C@H](C)[C@H](NC(=O)[C@H](CCCCNC(=O)COCCOCCNC(=O)COCCOCCNC(=O)CC[C@H](NC(=O)CC[C@H](NC(=O)CC[C@H](NC(=O)CC[C@H](NC(=O)CCCCCCCCCCCCCCCCC(=O)O)C(=O)O)C(=O)O)C(=O)O)C(=O)O)NC(=O)CNC(=O)[C@H](Cc1ccccc1)NC(=O)[C@H](CC(N)=O)NC(=O)[C@H](CC(N)=O)NC(=O)[C@H](CO)NC(=O)[C@H](CO)NC(=O)[C@H](Cc1c[nH]cn1)NC(=O)[C@@H](NC(=O)[C@H](CC(C)C)NC(=O)[C@H](Cc1ccccc1)NC(=O)[C@H](CC(N)=O)NC(=O)[C@H](C)NC(=O)[C@H](CC(C)C)NC(=O)[C@H](CCCNC(=N)N)NC(=O)[C@H](CCC(N)=O)NC(=O)[C@@H](NC(=O)[C@H](C)NC(=O)[C@@H]1CSSC[C@H](NC(=O)[C@@H](N)CCCCN)C(=O)N[C@@H](CC(N)=O)C(=O)N[C@@H]([C@@H](C)O)C(=O)N[C@@H](C)C(=O)N[C@@H]([C@@H](C)O)C(=O)N1)[C@@H](C)O)C(C)C)C(=O)N[C@@H](CC(C)C)C(=O)N1CCC[C@H]1C(=O)N1CCC[C@H]1C(=O)N[C@H](C(=O)N[C@@H](CC(N)=O)C(=O)N[C@H](C(=O)NCC(=O)N[C@@H](CO)C(=O)N[C@@H](CC(N)=O)C(=O)N[C@H](C(=O)N[C@@H](Cc1ccc(O)cc1)C(N)=O)[C@@H](C)O)C(C)C)[C@@H](C)O [Example 26, N-epsilon25-[2-(2-{2-[2-(2-{2-[(S)-4-carboxy-4-((S)-4-carboxy-4-{(S)-4-carboxy-4-[(S)-4-carboxy-4-(17-carboxyheptadecanoylamino)butyrylamino]butyrylamino}butyrylamino)butyrylamino]ethoxy}ethoxy)acetylamino]ethoxy}ethoxy)acetyl]-[Lys25]-pramlintide (1-37)] (H-KCNTATCATQRLANFLVHSSNNFGK([AEEA-AEEA-γGlu-γGlu-γGlu-γGlu-C18 diacid])ILPPTNVGSNTY-NH2; disulfide 2-7; N-terminus and C-terminus assumed)	0.3 nM
CC[C@H](C)[C@H](NC(=O)[C@H](CCCCNC(=O)CC[C@H](NC(=O)CCCCCCCCCCCCCCCCC(=O)O)C(=O)O)NC(=O)CNC(=O)[C@H](Cc1ccccc1)NC(=O)[C@H](CC(N)=O)NC(=O)[C@H](CC(N)=O)NC(=O)[C@H](CO)NC(=O)[C@H](CO)NC(=O)[C@H](Cc1c[nH]cn1)NC(=O)[C@@H](NC(=O)[C@H](CC(C)C)NC(=O)[C@H](Cc1ccccc1)NC(=O)[C@H](CC(N)=O)NC(=O)[C@H](C)NC(=O)[C@H](CC(C)C)NC(=O)[C@H](CCCNC(=N)N)NC(=O)[C@H](CCC(N)=O)NC(=O)[C@@H](NC(=O)[C@H](C)NC(=O)[C@@H]1CSSC[C@H](NC(=O)[C@@H](N)CCCCN)C(=O)N[C@@H](CC(N)=O)C(=O)N[C@@H]([C@@H](C)O)C(=O)N[C@@H](C)C(=O)N[C@@H]([C@@H](C)O)C(=O)N1)[C@@H](C)O)C(C)C)C(=O)N[C@@H](CC(C)C)C(=O)N1CCC[C@H]1C(=O)N1CCC[C@H]1C(=O)N[C@H](C(=O)N[C@@H](CC(N)=O)C(=O)N[C@H](C(=O)NCC(=O)N[C@@H](CO)C(=O)N[C@@H](CC(N)=O)C(=O)N[C@H](C(=O)N[C@@H](Cc1ccc(O)cc1)C(N)=O)[C@@H](C)O)C(C)C)[C@@H](C)O [Example 27, N-epsilon25-[(S)-4-carboxy-4-(17-carboxyheptadecanoylamino)butyryl]-[Lys25]-pramlintide (1-37)] (H-KCNTATCATQRLANFLVHSSNNFGK([γGlu-C18 diacid])ILPPTNVGSNTY-NH2; disulfide 2-7; N-terminus assumed)	0.09 nM
CC(C)C[C@H](NC(=O)[C@H](CC(N)=O)NC(=O)[C@H](CCC(N)=O)NC(=O)[C@H](CO)NC(=O)[C@H](CO)NC(=O)[C@H](CCCNC(=N)N)NC(=O)[C@@H](NC(=O)[C@H](CC(C)C)NC(=O)[C@H](Cc1ccccc1)NC(=O)[C@H](CC(N)=O)NC(=O)[C@H](C)NC(=O)[C@H](CC(C)C)NC(=O)[C@H](CCCNC(=N)N)NC(=O)[C@H](CCC(N)=O)NC(=O)[C@@H](NC(=O)[C@H](C)NC(=O)[C@@H]1CSSC[C@H](NC(=O)[C@@H](N)CCCCN)C(=O)N[C@@H](CCCCNC(=O)CC[C@H](NC(=O)CCCCCCCCCCCCCCCCC(=O)O)C(=O)O)C(=O)N[C@@H]([C@@H](C)O)C(=O)N[C@@H](C)C(=O)N[C@@H]([C@@H](C)O)C(=O)N1)[C@@H](C)O)C(C)C)C(=O)NCC(=O)N1CCC[C@H]1C(=O)N[C@H](C(=O)N[C@@H](CC(C)C)C(=O)N1CCC[C@H]1C(=O)N1CCC[C@H]1C(=O)N[C@H](C(=O)N[C@@H](CC(N)=O)C(=O)N[C@H](C(=O)NCC(=O)N[C@@H](CO)C(=O)N[C@@H](CC(N)=O)C(=O)N[C@H](C(=O)N[C@@H](Cc1ccc(O)cc1)C(N)=O)[C@@H](C)O)C(C)C)[C@@H](C)O)C(C)C [Example 28, N-epsilon3-[(S)-4-Carboxy-4-(17-carboxyheptadecanoylamino)butyryl]-[Lys3,Arg18,Gln21,Leu23,Val26]-pramlintide (1-37)] (H-KCK([γGlu-C18 diacid])TATCATQRLANFLVRSSQNLGPVLPPTNVGSNTY-NH2; disulfide 2-7)	0.04 nM
CC[C@H](C)[C@H](NC(=O)[C@@H]1CCCN1C(=O)CNC(=O)[C@H](Cc1ccccc1)NC(=O)[C@H](CC(N)=O)NC(=O)[C@H](CC(N)=O)NC(=O)[C@H](CO)NC(=O)[C@H](CO)NC(=O)[C@H](Cc1c[nH]cn1)NC(=O)[C@@H](NC(=O)[C@H](CC(C)C)NC(=O)[C@H](Cc1ccccc1)NC(=O)[C@H](CC(N)=O)NC(=O)[C@H](C)NC(=O)[C@H](CC(C)C)NC(=O)[C@H](CCCNC(=N)N)NC(=O)[C@H](CCC(N)=O)NC(=O)[C@@H](NC(=O)[C@H](C)NC(=O)[C@@H]1CSSC[C@H](NC(=O)[C@@H](N)CCCCN)C(=O)N[C@@H](CCCCNC(=O)COCCOCCNC(=O)CCCS(=O)(=O)NC(=O)CCCCCCCCCCCCCCCc2nnn[nH]2)C(=O)N[C@@H]([C@@H](C)O)C(=O)N[C@@H](C)C(=O)N[C@@H]([C@@H](C)O)C(=O)N1)[C@@H](C)O)C(C)C)C(=O)N[C@@H](CC(C)C)C(=O)N1CCC[C@H]1C(=O)N1CCC[C@H]1C(=O)N[C@H](C(=O)N[C@@H](CC(N)=O)C(=O)N[C@H](C(=O)NCC(=O)N[C@@H](CO)C(=O)N[C@@H](CC(N)=O)C(=O)N[C@H](C(=O)N[C@@H](Cc1ccc(O)cc1)C(N)=O)[C@@H](C)O)C(C)C)[C@@H](C)O [Example 30, N-epsilon3-[2-(2-{2-[4-(16-1H-tetrazol-5-yl-hexadecanoylsulfamoyl)butyrylamino]ethoxy}ethoxy)acetyl]-[Lys3]pramlintide (1-37)] (H-KCK([AEEA-X1])TATCATQRLANFLVHSSNNFGPILPPTNVGSNTY-NH2; disulfide 2-7; N-terminus and C-terminus assumed)	0.1 nM
